Ki and Activity data for 15 compounds are collected here from ChEMBL document CHEMBL4350990, “Benzensulfonamides bearing spyrohydantoin moieties act as potent inhibitors of human carbonic anhydrases II and VII and show neuropathic pain attenuating effects” (Eur J Med Chem, 2019).

The Ki is a dissociation constant, usually derived from enzyme kinetics or from competition with a known ligand.

One test has as its target Carbonic anhydrase 2 (Homo sapiens, UniProt P00918). Put plainly: Inhibition of human carbonic anhydrase 2 incubated for 15 mins prior to testing by stopped-flow CO2 hydration assay.
In another test the target is Carbonic anhydrase 13 (Homo sapiens, UniProt Q8N1Q1). Put plainly: Inhibition of human carbonic anhydrase 13 incubated for 15 mins prior to testing by stopped-flow CO2 hydration assay.
Sequence of Carbonic anhydrase 13 (Q8N1Q1 whole entry): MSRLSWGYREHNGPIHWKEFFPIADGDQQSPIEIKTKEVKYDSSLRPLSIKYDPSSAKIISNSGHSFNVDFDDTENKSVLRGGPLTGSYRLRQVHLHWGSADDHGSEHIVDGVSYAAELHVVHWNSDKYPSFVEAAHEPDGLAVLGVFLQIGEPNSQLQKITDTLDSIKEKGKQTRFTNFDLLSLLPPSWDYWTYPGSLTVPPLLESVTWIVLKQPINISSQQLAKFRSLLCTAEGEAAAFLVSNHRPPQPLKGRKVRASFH
The test system of test [1] is Mus musculus. Put plainly: Analgesic activity in oxaliplatin-induced neuropathic pain CD-1 albino mouse model assessed as decrease in pain-related behaviour measured as licking latency at 100 mg/kg, po treated on day 15 post oxaliplatin treatment and measured after 45 to 60 mins by cold plate test. Format: functional, organism-based.
A further test addresses Carbonic anhydrase 12 (Homo sapiens, UniProt O43570). The test is described as follows: Inhibition of human carbonic anhydrase 12 incubated for 15 mins prior to testing by stopped-flow CO2 hydration assay.
A further test addresses Carbonic anhydrase 9 (Homo sapiens, UniProt Q16790). The test is described as follows: Inhibition of human carbonic anhydrase 9 incubated for 15 mins prior to testing by stopped-flow CO2 hydration assay.
In another test the target is Carbonic anhydrase 1 (Homo sapiens, UniProt P00915). Put plainly: Inhibition of human carbonic anhydrase 1 incubated for 15 mins prior to testing by stopped-flow CO2 hydration assay.
Sequence of Carbonic anhydrase 1 (P00915 whole entry): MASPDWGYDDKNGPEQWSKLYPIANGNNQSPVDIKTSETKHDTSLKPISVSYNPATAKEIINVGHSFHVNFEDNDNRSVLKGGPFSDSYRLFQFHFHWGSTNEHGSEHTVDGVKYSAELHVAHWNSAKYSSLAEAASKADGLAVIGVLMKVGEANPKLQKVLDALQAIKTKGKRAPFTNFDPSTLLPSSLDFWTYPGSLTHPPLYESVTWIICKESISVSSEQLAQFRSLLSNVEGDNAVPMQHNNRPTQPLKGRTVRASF
A further test deals with Carbonic anhydrase 7 (Homo sapiens, UniProt P43166). The test is described as follows: Inhibition of human carbonic anhydrase 7 incubated for 15 mins prior to testing by stopped-flow CO2 hydration assay.
Sequence of Carbonic anhydrase 7 (P43166 whole entry): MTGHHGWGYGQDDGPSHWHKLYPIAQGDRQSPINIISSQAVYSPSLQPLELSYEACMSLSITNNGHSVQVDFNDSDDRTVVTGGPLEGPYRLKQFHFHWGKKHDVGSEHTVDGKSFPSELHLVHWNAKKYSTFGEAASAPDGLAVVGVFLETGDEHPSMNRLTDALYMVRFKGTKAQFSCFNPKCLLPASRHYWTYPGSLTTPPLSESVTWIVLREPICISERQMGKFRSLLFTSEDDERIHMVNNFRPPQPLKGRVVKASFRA
Test [2] relates to Mus musculus. The test is described as follows: Analgesic activity in orally dosed oxaliplatin-induced neuropathic pain CD-1 albino mouse model assessed as decrease in pain-related behaviour measured as licking latency treated on day 15 post oxaliplatin treatment by cold plate test. It counts as functional, organism-based.
In the next test the target is Carbonic anhydrase 4 (Homo sapiens, UniProt P22748). The test is described as follows: Inhibition of human carbonic anhydrase 4 incubated for 15 mins prior to testing by stopped-flow CO2 hydration assay.
Sequence of Carbonic anhydrase 4 (P22748 whole entry): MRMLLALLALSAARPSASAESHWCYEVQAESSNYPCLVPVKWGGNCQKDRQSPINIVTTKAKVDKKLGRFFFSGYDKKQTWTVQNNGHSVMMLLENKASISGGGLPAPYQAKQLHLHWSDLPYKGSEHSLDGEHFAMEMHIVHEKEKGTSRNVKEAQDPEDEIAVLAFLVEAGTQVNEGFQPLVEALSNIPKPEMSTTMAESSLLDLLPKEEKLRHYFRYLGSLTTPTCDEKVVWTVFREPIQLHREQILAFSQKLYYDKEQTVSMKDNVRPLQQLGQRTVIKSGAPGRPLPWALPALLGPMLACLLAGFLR
In another test the target is Carbonic anhydrase 3 (Homo sapiens, UniProt P07451). Put plainly: Inhibition of human carbonic anhydrase 3 incubated for 15 mins prior to testing by stopped-flow CO2 hydration assay.
Sequence of Carbonic anhydrase 3 (P07451 whole entry): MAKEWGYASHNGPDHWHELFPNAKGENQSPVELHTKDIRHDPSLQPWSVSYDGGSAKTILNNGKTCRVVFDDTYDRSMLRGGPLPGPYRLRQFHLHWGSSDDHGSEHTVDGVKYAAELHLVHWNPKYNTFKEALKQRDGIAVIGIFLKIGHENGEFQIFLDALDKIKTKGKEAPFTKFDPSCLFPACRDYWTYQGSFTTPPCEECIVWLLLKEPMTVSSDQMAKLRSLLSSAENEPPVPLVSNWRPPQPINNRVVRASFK
In a further test the target is Carbonic anhydrase 6 (Homo sapiens, UniProt P23280). Put plainly: Inhibition of human carbonic anhydrase 6 incubated for 15 mins prior to testing by stopped-flow CO2 hydration assay.
Sequence of Carbonic anhydrase 6 (P23280 whole entry): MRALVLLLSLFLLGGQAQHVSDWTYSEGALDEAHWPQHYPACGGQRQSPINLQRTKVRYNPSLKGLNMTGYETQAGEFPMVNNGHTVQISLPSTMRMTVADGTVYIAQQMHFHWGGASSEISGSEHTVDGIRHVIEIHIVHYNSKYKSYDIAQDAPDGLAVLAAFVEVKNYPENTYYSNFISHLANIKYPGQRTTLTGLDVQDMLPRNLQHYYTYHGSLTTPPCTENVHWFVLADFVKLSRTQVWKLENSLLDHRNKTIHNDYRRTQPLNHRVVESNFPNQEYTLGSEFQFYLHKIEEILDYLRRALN
The target of test [3] is Carbonic anhydrase 5A, mitochondrial (Homo sapiens, UniProt P35218). Put plainly: Inhibition of human carbonic anhydrase 5A incubated for 15 mins prior to testing by stopped-flow CO2 hydration assay.
Sequence of Carbonic anhydrase 5A, mitochondrial (P35218 whole entry): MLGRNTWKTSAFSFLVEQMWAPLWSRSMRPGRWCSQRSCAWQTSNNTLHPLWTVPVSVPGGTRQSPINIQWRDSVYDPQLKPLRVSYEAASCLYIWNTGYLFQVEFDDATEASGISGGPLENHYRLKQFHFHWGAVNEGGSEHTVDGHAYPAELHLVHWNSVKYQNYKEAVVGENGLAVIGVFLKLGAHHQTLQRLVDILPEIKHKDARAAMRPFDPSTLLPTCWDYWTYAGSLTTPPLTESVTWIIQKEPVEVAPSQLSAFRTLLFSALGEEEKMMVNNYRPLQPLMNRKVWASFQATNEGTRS
For test [4], the target named is Carbonic anhydrase 5B, mitochondrial (Homo sapiens, UniProt Q9Y2D0). The test is described as follows: Inhibition of human carbonic anhydrase 5B incubated for 15 mins prior to testing by stopped-flow CO2 hydration assay.
Sequence of Carbonic anhydrase 5B, mitochondrial (Q9Y2D0 whole entry): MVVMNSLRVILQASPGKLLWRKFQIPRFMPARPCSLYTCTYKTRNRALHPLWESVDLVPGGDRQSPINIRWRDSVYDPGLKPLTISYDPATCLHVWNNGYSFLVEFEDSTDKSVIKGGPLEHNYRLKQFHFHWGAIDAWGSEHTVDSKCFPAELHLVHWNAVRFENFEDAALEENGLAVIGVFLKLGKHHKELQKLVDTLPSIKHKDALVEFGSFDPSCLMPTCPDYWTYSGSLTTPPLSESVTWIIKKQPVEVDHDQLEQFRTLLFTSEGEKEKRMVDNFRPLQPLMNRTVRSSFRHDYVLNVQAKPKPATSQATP
The subject of test [5] is Mus musculus. The test is described as follows: Analgesic activity in oxaliplatin-induced neuropathic pain CD-1 albino mouse model assessed as licking latency at 30 to 100 mg/kg, po treated on day 15 post oxaliplatin treatment by cold plate test. It counts as functional, organism-based.
Test [6] relates to Mus musculus. The test is described as follows: Analgesic activity in oxaliplatin-induced neuropathic pain CD-1 albino mouse model assessed as decrease in pain-related behaviour measured as licking latency at 100 mg/kg, po treated on day 15 post oxaliplatin treatment and measured after 45 mins by cold plate test. It counts as functional, organism-based.

The source made the active and inactive calls. No cut-off for these calls is given here.

Sequence of Carbonic anhydrase 12 (O43570 whole entry): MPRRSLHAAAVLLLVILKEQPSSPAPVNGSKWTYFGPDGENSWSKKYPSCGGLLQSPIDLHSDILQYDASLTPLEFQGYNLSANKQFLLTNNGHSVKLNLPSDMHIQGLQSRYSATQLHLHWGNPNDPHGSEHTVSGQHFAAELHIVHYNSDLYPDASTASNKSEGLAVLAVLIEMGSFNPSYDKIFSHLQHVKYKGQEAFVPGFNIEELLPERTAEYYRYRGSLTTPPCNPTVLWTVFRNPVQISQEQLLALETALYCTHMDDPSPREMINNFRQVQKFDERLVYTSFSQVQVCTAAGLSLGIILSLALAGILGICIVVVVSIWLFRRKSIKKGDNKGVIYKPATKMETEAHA

As to `NS(=O)(=O)c1ccc(NC(=O)CN2C(=O)NC3(CCCC3)C2=O)cc1`, the inhibition constant (Ki) at Carbonic anhydrase 2 is 0.7 nM; at Carbonic anhydrase 13, above 10000 nM; on Carbonic anhydrase 12, 53.7 nM; at Carbonic anhydrase 9, 11.9 nM; on Carbonic anhydrase 1, 141 nM; at Carbonic anhydrase 7, 0.8 nM. The result in the test on Mus musculus [1] was Active. The Activity entry in the test with Mus musculus [2] was “Dose-dependent effect”.

With `NS(=O)(=O)c1ccc(NC(=O)CN2C(=O)NC3(CCCCCC3)C2=O)cc1`, the Ki at Carbonic anhydrase 2 was 1.2 nM; at Carbonic anhydrase 13, above 10000 nM; at Carbonic anhydrase 12, 42.8 nM; on Carbonic anhydrase 9, 4.3 nM; on Carbonic anhydrase 1, 237 nM; at Carbonic anhydrase 7, 0.8 nM.

On to `NS(=O)(=O)c1ccc(CCNC(=O)CN2C(=O)NC3(CCCCC3)C2=O)cc1`, for which the Ki at Carbonic anhydrase 2 is 7.1 nM; on Carbonic anhydrase 4, 8010 nM; on Carbonic anhydrase 3, above 10000 nM; on Carbonic anhydrase 13, 7410 nM; at Carbonic anhydrase 6, above 10000 nM; at Carbonic anhydrase 12 it was 86.6 nM. The inhibition constant (Ki) on Carbonic anhydrase 9 amounted to 76.7 nM; in test [3], 534 nM; at Carbonic anhydrase 1 it was 626 nM; in test [4], 7320 nM; on Carbonic anhydrase 7 it was 6.9 nM.

As for `NS(=O)(=O)c1ccc(NC(=O)CN2C(=O)NC3(CCCCC3)C2=O)cc1`, the inhibitory constant (Ki) worked out at 3.1 nM at Carbonic anhydrase 2; 809 nM on Carbonic anhydrase 13; 46.6 nM on Carbonic anhydrase 12; 3.3 nM at Carbonic anhydrase 9; 7.5 nM on Carbonic anhydrase 1; 1.3 nM at Carbonic anhydrase 7. Also, in the test on Mus musculus [5], the result was inactive.

`NS(=O)(=O)c1ccc(C[Se]c2ccc(NC(=O)CN3C(=O)NC4(CCCCC4)C3=O)cc2)cc1`: the Ki on Carbonic anhydrase 2 is 19.6 nM; at Carbonic anhydrase 13, above 10000 nM; on Carbonic anhydrase 12 it was 4.1 nM; at Carbonic anhydrase 9 it was 3.3 nM; on Carbonic anhydrase 1 it was 63.6 nM; at Carbonic anhydrase 7, 0.2 nM.

`CC1CCCC2(C1)NC(=O)N(CC(=O)NCCc1ccc(S(N)(=O)=O)cc1)C2=O` (stereo not given): the Ki at Carbonic anhydrase 2 is 0.7 nM; on Carbonic anhydrase 4, 7190 nM; on Carbonic anhydrase 3 it was above 10000 nM; on Carbonic anhydrase 13 it was above 10000 nM; at Carbonic anhydrase 6, above 10000 nM; on Carbonic anhydrase 12, 83.4 nM. Besides, the Ki is 477 nM at Carbonic anhydrase 9; 8680 nM in [3]; 306 nM on Carbonic anhydrase 1; above 10000 nM in test [4]; 3 nM at Carbonic anhydrase 7.

For the compound `CC1CCCC2(C1)NC(=O)N(CC(=O)Nc1ccc([Se]Cc3ccc(S(N)(=O)=O)cc3)cc1)C2=O` (stereo not given), the inhibition constant Ki was 0.7 nM on Carbonic anhydrase 2; 767 nM at Carbonic anhydrase 13; 8.6 nM on Carbonic anhydrase 12; 17.8 nM on Carbonic anhydrase 9; 62.3 nM on Carbonic anhydrase 1; 4.7 nM at Carbonic anhydrase 7. Also, the result with Mus musculus [6] was Active.

Turning to `CC1CCCC2(C1)NC(=O)N(CC(=O)Nc1ccc(S(N)(=O)=O)cc1)C2=O` (stereo not given), the Ki at Carbonic anhydrase 2 came to 0.8 nM; at Carbonic anhydrase 13 it was 5780 nM; on Carbonic anhydrase 12 it was 39.7 nM; at Carbonic anhydrase 9 it was 2.6 nM; at Carbonic anhydrase 1, 80.3 nM; on Carbonic anhydrase 7, 1.5 nM.

With `NS(=O)(=O)c1ccc(CNC(=O)CN2C(=O)NC3(CCCCCC3)C2=O)cc1`, the inhibition constant (Ki) was 47.1 nM on Carbonic anhydrase 2; above 10000 nM on Carbonic anhydrase 13; 62.3 nM at Carbonic anhydrase 12; 3.5 nM on Carbonic anhydrase 9; 649 nM at Carbonic anhydrase 1; 3.7 nM on Carbonic anhydrase 7.

With `NS(=O)(=O)c1ccc(CNC(=O)CN2C(=O)NC3(CCCC3)C2=O)cc1`, the Ki turned out to be 1.5 nM at Carbonic anhydrase 2; 2170 nM at Carbonic anhydrase 13; 9.6 nM at Carbonic anhydrase 12; 93 nM at Carbonic anhydrase 9; 2770 nM on Carbonic anhydrase 1; 3.6 nM on Carbonic anhydrase 7.

As for `NS(=O)(=O)c1ccc(CCNC(=O)CN2C(=O)NC3(CCCCCC3)C2=O)cc1`, the Ki is 0.71 nM on Carbonic anhydrase 2; 6490 nM at Carbonic anhydrase 4; above 10000 nM at Carbonic anhydrase 3; above 10000 nM at Carbonic anhydrase 13; above 10000 nM on Carbonic anhydrase 6; 62.9 nM at Carbonic anhydrase 12. Besides, the Ki was 33.1 nM at Carbonic anhydrase 9; 6180 nM in [3]; 491 nM on Carbonic anhydrase 1; above 10000 nM in test [4]; 5.1 nM at Carbonic anhydrase 7.

Regarding `CC1CCCC2(C1)NC(=O)N(CC(=O)NCc1ccc(S(N)(=O)=O)cc1)C2=O` (stereo not given), the Ki on Carbonic anhydrase 2 was 8.3 nM; at Carbonic anhydrase 13, above 10000 nM; at Carbonic anhydrase 12, 33.3 nM; on Carbonic anhydrase 9, 229 nM; on Carbonic anhydrase 1 it was 853 nM; on Carbonic anhydrase 7, 4.4 nM.

For `NS(=O)(=O)c1ccc(C[Se]c2ccc(NC(=O)CN3C(=O)NC4(CCCCCC4)C3=O)cc2)cc1`, the Ki came out at 22.8 nM at Carbonic anhydrase 2; 88.4 nM at Carbonic anhydrase 13; 49.4 nM at Carbonic anhydrase 12; 6.4 nM on Carbonic anhydrase 9; 384 nM on Carbonic anhydrase 1; 4.7 nM on Carbonic anhydrase 7. For the same compound, the result with Mus musculus [6] was Active.

As to `NS(=O)(=O)c1ccc(CCNC(=O)CN2C(=O)NC3(CCCC3)C2=O)cc1`, the inhibition constant (Ki) at Carbonic anhydrase 2 is 6.9 nM; at Carbonic anhydrase 4, 9660 nM; on Carbonic anhydrase 3, above 10000 nM; on Carbonic anhydrase 13, above 10000 nM; at Carbonic anhydrase 6 it was above 10000 nM; on Carbonic anhydrase 12 it was 6.2 nM. Also, the Ki on Carbonic anhydrase 9 is 122 nM; in [3], 3940 nM; at Carbonic anhydrase 1, 6330 nM; in test [4], above 10000 nM; at Carbonic anhydrase 7, 4.7 nM.

As for `NS(=O)(=O)c1ccc(CNC(=O)CN2C(=O)NC3(CCCCC3)C2=O)cc1`, the inhibitory constant (Ki) is 20.7 nM at Carbonic anhydrase 2; above 10000 nM on Carbonic anhydrase 13; 728 nM on Carbonic anhydrase 12; 105 nM on Carbonic anhydrase 9; 470 nM at Carbonic anhydrase 1; 5.4 nM at Carbonic anhydrase 7.
